Laboratory results from ChEMBL document CHEMBL1955762, “An iminosugar N-pentafluorobenzyl-1-deoxynojirimycin as a novel potential immunosuppressant for the treatment of Th2-related diseases” (Bioorg Med Chem Lett, 2012).
Activity calls are given as the source filed them. No cut-off for these calls is given here.

Columns and labels:
[1] = Induction of apoptosis in Con A-stimulated human PBMC assessed as viable cells at 90 uM after 72 hrs by annexin V/PI based flow cytometric analysis (reference value: 84.6 %); type: cell-based; details: read-out: Activity
Mus musculus [2] = test: Immunosuppressant activity in C57BL/6 mouse infected with Schistosoma japonicum assessed as inhibition of IL-4 production in spleen at 100 mM, iv after 56 days by ELISA; type: functional, organism-based
[3] = target: Tyrosine-protein kinase JAK1 (Homo sapiens) (UniProt P23458); test: Inhibition of JAK1-mediated GATA3 phosphorylation in PMA-stimulated human PBMC at 90 uM by Western blot analysis; details: TDE = time-dependent effect
PBMC [4] = test: Inhibition of Con A-induced phospho-GATA3 expression in human PBMC at 90 uM after 72 hrs by flow cytometry; type: functional, cell-based
T-cell [5] = test: Immunosuppressant activity in human CD3+ CD4+ T cells assessed as reduction in CD4 surface expression at 90 uM after 72 hrs by flow cytometry (reference value: 46%); type: functional; design: scale not given: the % may be the effect or the level left
PBMC [6] = test: Induction of apoptosis in Con A-stimulated human PBMC assessed as early apoptotic cells at 90 uM after 72 hrs by annexin V/PI based flow cytometric analysis (reference value: 6.3 %); type: cell-based
[7] = target: Tyrosine-protein kinase JAK1 (Homo sapiens) (UniProt P23458); test: Inhibition of PMA-induced JAK1 phosphorylation in human PBMC at 90 uM by Western blot analysis; details: TDE = time-dependent effect
[8] = target: Tyrosine-protein kinase JAK1 (Homo sapiens) (UniProt P23458); test: Inhibition of JAK1-mediated GATA3 phosphorylation in PMA-stimulated human PBMC at 90 uM after 30 mins by Western blot analysis
Schistosoma japonicum = test: Antischistosomiasis activity against Schistosoma japonicum infected in C57BL/6 mouse at 100 mM, iv after 45 days; type: functional, organism-based
PBMC [9] = test: Immunosuppressant activity in human PBMC assessed as reduction in Con A-induced extracellular IL4 level at 90 uM after 72 hrs by ELISA relative to untreated control; type: functional; design: scale not given: the % may be the effect or the level left
Mus musculus [10] = test: Immunosuppressant activity in C57BL/6 mouse infected with Schistosoma japonicum assessed as inhibition of IFN-gamma production in liver at 100 mM, iv after 45 days by ELISA; type: functional, organism-based
Mus musculus [11] = test: Immunosuppressant activity in C57BL/6 mouse infected with Schistosoma japonicum assessed as inhibition of IL-4 production in liver at 100 mM, iv after 45 days by ELISA; type: functional, organism-based
Mus musculus [12] = test: Immunosuppressant activity in C57BL/6 mouse infected with Schistosoma japonicum assessed as inhibition of IFN-gamma production in spleen at 100 mM, iv after 45 days by ELISA; type: functional, organism-based
Splenocyte = test: Immunosuppressant activity in BALB/c mouse splenocytes assessed as reduction in Con A-induced IL4 secretion at 90 uM after 72 hrs by ELISA; type: functional, cell-based
T-cell [13] = test: Immunosuppressant activity in human CD3+ CD4+ T cells pretreated with TritonX 100 assessed as CD4 internalization at 90 uM after 72 hrs by confocal laser scanning microscopy; type: functional, cell-based
PBMC [14] = test: Induction of apoptosis in Con A-stimulated human PBMC assessed as late apoptotic cells at 90 uM after 72 hrs by annexin V/PI based flow cytometric analysis (reference value: 4.3 %); type: cell-based
PBMC [15] = test: Induction of apoptosis in Con A-stimulated human PBMC assessed as necrotic cells at 90 uM after 72 hrs by annexin V/PI based flow cytometric analysis (reference value: 5.8 %); type: cell-based
PBMC [16] = test: Inhibition of Con-A-induced phospho-STAT6 expression in human PBMC at 90 uM after 72 hrs by flow cytometry (reference value: 10.52+/-1.9%); type: functional; details: read-out: INH
PBMC [17] = test: Inhibition of ConA-induced phospho-JAK1 expression in human PBMC at 90 uM after 72 hrs by flow cytometry; type: functional, cell-based
[18] = target: Tyrosine-protein kinase JAK1 (Homo sapiens) (UniProt P23458); test: Inhibition of PMA-induced JAK1 phosphorylation in human PBMC at 90 uM after 15 mins by Western blot analysis
Mus musculus [19] = test: Immunosuppressant activity in C57BL/6 mouse infected with Schistosoma japonicum assessed as decrease in liver granuloma size at 100 mM, iv after 45 days; type: functional, organism-based
T-cell [20] = test: Immunosuppressant activity in human CD3+ CD4+ T cells pretreated with TritonX 100 assessed as reduction in CD4 surface expression at 90 uM after 72 hrs by flow cytometry (reference value: 46%); type: functional; design: scale not given: the % may be the effect or the level left
Mus musculus [21] = test: Immunosuppressant activity in C57BL/6 mouse infected with Schistosoma japonicum assessed as inhibition of IL-4 production in liver at 100 mM, iv after 56 days by ELISA; type: functional, organism-based
Mus musculus [22] = test: Immunosuppressant activity in C57BL/6 mouse infected with Schistosoma japonicum assessed as inhibition of IFN-gamma production in liver at 100 mM, iv after 56 days by ELISA; type: functional, organism-based
T-cell [23] = test: Immunosuppressant activity in human CD4+ T cells assessed as Con A-induced intracellular IL4 level at 90 uM after 72 hrs by flow cytometry (reference value: 4.2+/-0.9%); type: functional
T-cell [24] = test: Inhibition of CD4 expression in human CD4+ T cells; type: functional, cell-based
PBMC [25] = test: Inhibition of PMA-induced GATA3 expression in human PBMC at 90 uM after 15 mins by Western blot analysis; type: functional, cell-based
Mus musculus [26] = test: Immunosuppressant activity in C57BL/6 mouse infected with Schistosoma japonicum assessed as inhibition of IFN-gamma production in spleen at 100 mM, iv after 56 days by ELISA; type: functional, organism-based
PBMC [27] = test: Inhibition of PMA-induced JAK1 expression in human PBMC at 90 uM after 15 mins by Western blot analysis; type: functional, cell-based

Chain of Tyrosine-protein kinase JAK1 (Homo sapiens) (P23458 whole entry): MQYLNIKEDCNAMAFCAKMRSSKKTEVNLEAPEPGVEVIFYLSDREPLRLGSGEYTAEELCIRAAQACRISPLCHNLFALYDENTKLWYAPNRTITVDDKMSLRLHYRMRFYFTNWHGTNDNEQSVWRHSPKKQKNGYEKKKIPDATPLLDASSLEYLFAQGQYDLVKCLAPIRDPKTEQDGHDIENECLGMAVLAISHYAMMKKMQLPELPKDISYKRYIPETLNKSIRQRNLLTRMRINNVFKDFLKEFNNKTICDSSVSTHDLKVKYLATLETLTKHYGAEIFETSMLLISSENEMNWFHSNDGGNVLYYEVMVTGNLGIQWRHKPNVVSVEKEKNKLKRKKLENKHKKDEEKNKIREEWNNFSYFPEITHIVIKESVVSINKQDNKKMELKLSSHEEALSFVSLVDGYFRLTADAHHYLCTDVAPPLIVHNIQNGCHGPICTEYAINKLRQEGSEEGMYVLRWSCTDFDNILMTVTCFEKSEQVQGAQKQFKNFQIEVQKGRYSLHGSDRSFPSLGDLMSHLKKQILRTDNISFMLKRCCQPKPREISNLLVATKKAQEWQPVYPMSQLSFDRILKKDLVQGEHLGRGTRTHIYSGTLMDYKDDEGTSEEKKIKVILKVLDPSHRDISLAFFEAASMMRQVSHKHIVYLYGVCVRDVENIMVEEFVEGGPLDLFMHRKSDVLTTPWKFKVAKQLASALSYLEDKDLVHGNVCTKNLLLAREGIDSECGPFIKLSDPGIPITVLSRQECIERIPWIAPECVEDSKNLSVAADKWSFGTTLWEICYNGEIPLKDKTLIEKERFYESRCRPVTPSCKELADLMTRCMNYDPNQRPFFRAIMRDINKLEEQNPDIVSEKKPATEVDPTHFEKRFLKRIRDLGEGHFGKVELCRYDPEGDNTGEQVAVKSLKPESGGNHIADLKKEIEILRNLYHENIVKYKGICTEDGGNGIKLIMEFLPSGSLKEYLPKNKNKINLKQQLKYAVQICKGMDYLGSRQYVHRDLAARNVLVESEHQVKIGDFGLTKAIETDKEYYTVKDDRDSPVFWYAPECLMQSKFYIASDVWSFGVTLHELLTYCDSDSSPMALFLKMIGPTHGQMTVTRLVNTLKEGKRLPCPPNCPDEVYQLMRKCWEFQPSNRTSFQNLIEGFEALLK

Compound	inhibition (PBMC [4])	inhibition [8]	Activity (PBMC [9])	phospho-STAT6 expression level at 90 µM (PBMC [16])	inhibition (PBMC [17])	inhibition [18]	Activity (T-cell [23])	IC50 (T-cell [24])	inhibition (PBMC [25])	inhibition (PBMC [27])	further results
OC[C@@H]1[C@@H](O)[C@H](O)[C@@H](O)CN1Cc1c(F)c(F)c(F)c(F)c1F	Active	Active	26%	4.5%	Active	Active	0.79%	20.2 µM	inactive	inactive	viability at 72 h, 90 µM [1]: 83%; inhibition (Mus musculus [2]): Active; inhibition [3]: tde; Activity (T-cell [5]): 28%; Activity (PBMC [6]): 7.2%; inhibition [7]: tde; Activity (Schistosoma japonicum): Active; inhibition (Mus musculus [10]): inactive; inhibition (Mus musculus [11]): inactive; inhibition (Mus musculus [12]): inactive; Activity (Splenocyte): Active; Activity (T-cell [13]): Active; Activity (PBMC [14]): 5.2%; Activity (PBMC [15]): 4.7%; Activity (Mus musculus [19]): Active; Activity (T-cell [20]): 44%; inhibition (Mus musculus [21]): inactive; inhibition (Mus musculus [22]): inactive; inhibition (Mus musculus [26]): inactive
OC[C@H]1NC[C@@H](O)[C@@H](O)[C@@H]1O [DEOXYMANNOJIRIMYCIN]	Active	inactive		8.8%	Active	inactive	1.5%		inactive	inactive	
OC[C@H]1NC[C@H](O)[C@@H](O)[C@@H]1O [DUVOGLUSTAT]	Active	inactive	inactive	9.6%	Active	inactive	2.53%	25.6 µM	inactive	inactive	
C/C=C/C[C@@H](C)[C@@H](O)[C@H]1C(=O)N[C@@H](CC)C(=O)N(C)CC(=O)N(C)[C@@H](CC(C)C)C(=O)N[C@@H](C(C)C)C(=O)N(C)[C@@H](CC(C)C)C(=O)N[C@@H](C)C(=O)N[C@H](C)C(=O)N(C)[C@@H](CC(C)C)C(=O)N(C)[C@@H](CC(C)C)C(=O)N(C)[C@@H](C(C)C)C(=O)N1C [CYCLOSPORINE]			26%	3.7%			0.71%				
